Assay results from US10568913B2, “Method for generating mature β-like cells” (The University of Western Australia, priority 2013, dated 2020).

What was measured:
Ngn3+ islet progenitors = assay: DsRed+ cell differentiation from purified Ngn3-GFP+ progenitors (Ngn3-GFP/RIP-DsRed mice); type: cell-based, mouse
Description: (§1) Approximately 7,500 E15.5 [at which the number of Ngn3^+ progenitors is peaked] mouse fetuses from both MIPGFP and Ngn3-GPF/RIP-DsRed lines were used for enrichment/purification of Ngn3^+ progenitors. Mouse pancreases were dissected under a stereoscope (Olympus, Tokyo, Japan). Eleven human fetal pancreases were collected from 18-22 week-fetuses (Table 1) and minced. Both mouse and human pancreases were enzymatically dissociated into single cells under aseptic conditions. Rat anti-E-cadherin (E-cad, also known as CD324 or uvomorulin) monoclonal antibody IgG2a (Invitrogen, Carlsbad), Alexa Fluor 647 anti-E-cad (eBioscience), rat anti-integrin α6 subunit (α6, also known as CD49f) mAb IgG2a, phycoerythrin (PE) rat anti-human α6 (Becton Dickson Biosciences, San Jose), PE anti-mouse CD133 (also known as prominin I, eBioscience), biotin rabbit anti-rat immunoglobumins, allophycocyanin (APC) rat anti-mouse CD45 and APC rat anti-mouse TER119 and streptavidin APC-Cy7, streptavidin PE-Texas Red, streptavidin APC (BD Biosciences) or streptavidin Alexa Fluor 750 (Invitrogen), were used. After each incubation with antibodies, cells were washed twice with FACS buffer (0.1% bovine serum albumin in phosphate buffered saline) and finally re-suspended in this buffer containing 1 μg/ml propidium iodide (PI) or 4′,6-diamidino-2-phenylindole (DAPI) for sorting (FACSAria II, Becton Dickson Labware, Bedford). The purity of sorted cells was determined by post-sort analysis. Data presented represented cell samples with over 90% purity.
Sorted β-cell progenitor-enriched cells or Ngn3^+ β-cell progenitors were differentiated in 96-, 12- or 6-well plates (BD Labware). The basal differentiation medium is Dulbecco's Modified Eagle Medium (Invitrogen) with 5.75 or 27.5 mM D-glucose supplemented with 1% B27 (Invitrogen) and 100 μg/ml streptomycin and 100 units/ml penicillin. Growth factor-reduced Matrigel (200 μg/ml, BD Biosciences) was overlayed onto cells in the presence of various potential regulators. […]
The number of β-like cells was directly quantified under a fluorescence microscope. […]

[1] = test system: differentiated β-like cells; assay: Maturation of differentiated β-like cells, glucose stimulated insulin secretion; type: cell-based, mouse; details: calcitriol 10 nM, 4 days; glucose 2.75 / 27.5 mM (FIG. 19)
Method: The differentiated cells were washed twice with warm PBS. After pre-incubation with Krebs-Ringer buffer at 37° C. for 90 min, the cells were incubated at 37° C. for 60 min with basal D-glucose (2.75 mM) or stimulus D-glucose (27.5 mM). Then each conditioned medium was collected to determine the insulin concentration using an insulin ELISA kit (Mercodia AB, Uppsala, Sweden). Nic-containing differentiation medium was removed from the differentiated β-like cells. A warmed maturation medium was added to the differentiated cells. The maturation medium is Dulbecco's Modified Eagle Medium (Invitrogen) with 5.75 mM D-glucose without nicotinamide (10 mM), 2% B27 (Invitrogen) and 100 μg/ml streptomycin and 100 units/ml penicillin supplemented with calcitriol (10 nM). Cultures were incubated in 10% CO2 90% air at 37° C., for 4 days.

NeuroD = assay: qRT-PCR of genes in matured insulin-secreting cells; type: cell-based, mouse; details: β-like cells treated with calcitriol
Method: Real time quantitative RT-PCR analysis was carried out using power SYBR Green PCR Master Mix and SYBR® Green Cells-to-Ct™ Kits purchased from Applied Biosystems (Foster City, USA). cDNA was amplified by PCR: 95° C. for 10 min, followed by 40 cycles of 95° C. for 15 sec and 60° C. for 1 min. The number of cycles of threshold (Ct) was measured with an ABI Prism 7900HT Sequence Detection System (Applied Biosystems) or a Rotor-Gene RG-3000 (Corbet Research, Sydney, Australia). All quantifications (ΔCt) were normalized with the internal 18s rRNA level (2^−Δct). Nic-containing differentiation medium was removed from the differentiated β-like cells. A warmed maturation medium was added to the differentiated cells. The maturation medium is Dulbecco's Modified Eagle Medium (Invitrogen) with 5.75 mM D-glucose without nicotinamide (10 mM), 2% B27 (Invitrogen) and 100 μg/ml streptomycin and 100 units/ml penicillin supplemented with calcitriol (10 nM). Cultures were incubated in 10% CO2 90% air at 37° C., for 4 days.

MIN6 cells = assay: Glucose stimulated insulin secretion in highly passaged MIN6 cells; type: cell-based, mouse; details: FIG. 20, 21
Method: The differentiated cells were washed twice with warm PBS. After pre-incubation with Krebs-Ringer buffer at 37° C. for 90 min, the cells were incubated at 37° C. for 60 min with basal D-glucose (2.75 mM) or stimulus D-glucose (27.5 mM). Then each conditioned medium was collected to determine the insulin concentration using an insulin ELISA kit (Mercodia AB, Uppsala, Sweden). MIN6 cells were routinely maintained in a published protocol which contains Dulbecco's modified Eagle's medium (DMEM) containing 25 mM glucose, supplemented with 10% fetal calf serum, 2 mM L-glutamine, 25 mM Hepes, and 285 μM 2-mercaptoethanol. MIN6 cells presented in this study were at passages 30-40 (low passage, LP) or passages 60-70 (high passage, HP). All assays used MIN6 grown to 70-80% confluence unless otherwise stated.

[2] = versus calcitriol; cited from earlier work
[3] = test system: Ngn3+ progenitor-containing E-cad+ cells; assay: Insulin-producing (MIPGFP+) cell differentiation from sorted E-cad+ cells of E15.5 MIPGFP mouse pancreas; type: cell-based; details: Nic 10 mM, serum-free and feeder-free culture (FIG. 1c,d)
Method: Approximately 7,500 E15.5 [at which the number of Ngn3^+ progenitors is peaked] mouse fetuses from both MIPGFP and Ngn3-GPF/RIP-DsRed lines were used for enrichment/purification of Ngn3^+ progenitors. Mouse pancreases were dissected under a stereoscope (Olympus, Tokyo, Japan). Eleven human fetal pancreases were collected from 18-22 week-fetuses (Table 1) and minced. Both mouse and human pancreases were enzymatically dissociated into single cells under aseptic conditions. […] After each incubation with antibodies, cells were washed twice with FACS buffer (0.1% bovine serum albumin in phosphate buffered saline) and finally re-suspended in this buffer containing 1 μg/ml propidium iodide (PI) or 4′,6-diamidino-2-phenylindole (DAPI) for sorting (FACSAria II, Becton Dickson Labware, Bedford). The purity of sorted cells was determined by post-sort analysis.
Sorted β-cell progenitor-enriched cells or Ngn3^+ β-cell progenitors were differentiated in 96-, 12- or 6-well plates (BD Labware). […] Growth factor-reduced Matrigel (200 μg/ml, BD Biosciences) was overlayed onto cells in the presence of various potential regulators. Thyrotropin releasing hormone (TRH, 100 nM) was purchased from Auspep (Melbourne, Australia). […] Cultures were incubated in 10% CO2 90% air at 37° C., for up to 8 days.
The number of β-like cells was directly quantified under a fluorescence microscope. To verify the accuracy of cell count, at least five randomly chosen fields per well were microphotographed under the inverse IX71 Olympus fluorescence microscope (Olympus, Tokyo, Japan) and the number of β-like cells determined with the Image Pro Plus software installed in the computer.

[4] = test system: human islet progenitors (population III); assay: Differentiation of FACS-enriched human fetal islet progenitors, immunofluorescence for insulin and glucagon; type: cell-based; details: 6 days, 10 mM Nic
Description: as §1, with “After each incubation with antibodies, cells were washed twice with FACS buffer (0.1% bovine serum albumin in phosphate buffered saline) and finally re-suspended in this buffer containing 1 μg/ml propidium iodide (PI) or 4′,6-diamidino-2-phenylindole (DAPI) for sorting (FACSAria II, Becton Dickson Labware, Bedford).” left out, “Data presented represented cell samples with over 90% purity.” left out

Structure (SMILES) | β-cell differentiation of Ngn3+ islet progenitors (number of DsRed+ cells) (Ngn3+ islet progenitors; calcitriol 10 nM with or without Nic 10 mM, day 4 (FIG. 17)) | maturation of differentiated β-like cells (GSIS) [1] | NeuroD expression (NeuroD) | glucose stimulated insulin secretion (GSIS) in dedifferentiated, highly passaged MIN6 cells (MIN6 cells) | hypercalcaemic effect, fold less [2] [fold] | number of MIPGFP+ cells, fold more in the presence of Nic [3] | number of differentiated DsRed+ cells, share of optimal levels (Ngn3+ islet progenitors; Nic added at 24 hr after plating, counted at day 4) | DsRed+ cells, share of all cells by FACS (Ngn3+ islet progenitors; day 4 of culture, 0% at the start) [%] | α and β cells detected immunochemically in cultured population III [4]
C=C1/C(=C\C=C2/CCC[C@]3(C)[C@@H]([C@H](C)CCCC(C)(C)O)CC[C@@H]23)C[C@@H](O)C[C@@H]1O [Calcitriol, 1, 25 (OH)2 vitamin D3] | does not promote β-cell differentiation | promoted the maturation | further up-regulated | partially restores GSIS |  |  |  |  | 
C[C@H](CC#CC(C)(C)O)[C@H]1CC[C@@H]2/C(=C/C=C3C[C@@H](O)C[C@H](O)C3)CCC[C@@]21C [Inecalcitol, 19-nor-14-epi-23-yne calcitriol] |  |  |  |  | 480 |  |  |  | 
NC(=O)c1cccnc1 [Nic, pyridine-3-carboxylic acid amide] |  |  |  | regain partial GSIS |  | at least 17 fold | approximately 40% | 35 | numerous single hormone-positive α and β cells
